Measurements published in PMC4421842 (Nature Communications, 2015).

Assays:
E. faecium = test: microbe, parasite or virus in culture; type: cell-based; settings: E. faecium, gyrA Ser83Ile, parC Ser80Ile
E. faecalis = test: microbe, parasite or virus in culture; type: cell-based; settings: E. faecalis, gyrA Ser83Ile

Measured: MIC

Cc1cc(=O)n(C)c2c3c4c(cc12)c(C)cc(=O)n4CO3 [DNM, deoxynybomycin]
0.25 µg/mL: E. faecium; C27569 | E. faecium; D1 | E. faecium; S51 | E. faecium; S122 | E. faecium; SL152 | E. faecalis; C21667, parC Ser80Ile | E. faecalis; C28535, parC Ser80Ile | E. faecalis; S234, parC Ser80Ile Glu84Asp

CCn1c(=O)cc(C)c2cc3c(C)cc(=O)n4c3c(c21)OC4 [DNM-2]
0.25 µg/mL: E. faecalis; C28535, parC Ser80Ile | E. faecalis; S234, parC Ser80Ile Glu84Asp
